Test results published in ChEMBL document CHEMBL1201862, “PubChem BioAssay data set” (2004).
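Each compound was tested at five concentrations against cells in 96-well plates for 48 hours. At the GI50, growth is halved.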 Activity calls are given as the source filed them. No stated cut-off is given here; in the data, active = GI50 up to about 1.1 µM and inactive = higher.

What was measured:
Assay in all cases: NCI tumour cell line growth inhibition, 48 h
NCI-H226 = tested on: NCI-H226
UACC-257 = tested on: UACC-257
SK-MEL-5 = tested on: SK-MEL-5
SN12C = tested on: SN12C
Malme-3M = tested on: Malme-3M
HT-29 = tested on: HT-29
UACC-62 = tested on: UACC-62
HCT-15 = tested on: HCT-15
TK-10 = tested on: TK-10
T47D = tested on: T47D
CCRF-CEM = tested on: CCRF-CEM
NCI/ADR-RES = tested on: NCI/ADR-RES
RPMI-8226 = tested on: RPMI-8226
SK-MEL-28 = tested on: SK-MEL-28
KM12 = tested on: KM12
HCC 2998 = tested on: HCC 2998
RXF 393 = tested on: RXF 393
MDA-N = tested on: MDA-N
A498 = tested on: A498

SMILES	GI50 (NCI-H226)	GI50 (UACC-257)	GI50 (SK-MEL-5)	GI50 (SN12C)	GI50 (Malme-3M)	GI50 (HT-29)	GI50 (UACC-62)	GI50 (HCT-15) [µM]	GI50 (TK-10)	GI50 (T47D)	GI50 (CCRF-CEM)	GI50 (NCI/ADR-RES)	GI50 (RPMI-8226)	GI50 (SK-MEL-28)	GI50 (KM12)	GI50 (HCC 2998)	GI50 (RXF 393)	GI50 (MDA-N)	GI50 (A498)
Cc1ccc(S(=O)(=O)N2CCN(S(=O)(=O)c3ccc(C)cc3)Cc3ccccc3C2)cc1	60.3 µM (inactive)	49.8 µM (inactive)	29.3 µM (inactive)	53.2 µM (inactive)	> 100 µM (inactive)	> 100 µM (inactive)	10.1 µM (inactive)	> 100	> 100 µM (inactive)	28.2 µM (inactive)	> 100 µM (inactive)	> 100 µM (inactive)	> 100 µM (inactive)	> 100 µM (inactive)	> 100 µM (inactive)	> 100 µM (inactive)			
O=C(CC1(O)C(=O)Nc2c(Cl)ccc(Cl)c21)c1ccc(F)cc1 (centres undefined)	24.8 µM (inactive)	33.5 µM (inactive)	17.9 µM (inactive)	60.1 µM (inactive)	69.5 µM (inactive)	40.4 µM (inactive)		38.7	55.8 µM (inactive)		25.9 µM (inactive)		18 µM (inactive)	> 100 µM (inactive)	43 µM (inactive)	82.4 µM (inactive)	29.5 µM (inactive)		
COC(CNC(=O)CNC(=O)c1ccc(C(F)(F)F)cc1)OC	> 100 µM (inactive)	> 100 µM (inactive)	> 100 µM (inactive)	> 100 µM (inactive)	> 100 µM (inactive)	> 100 µM (inactive)	> 100 µM (inactive)	> 100	> 100 µM (inactive)	> 100 µM (inactive)	> 100 µM (inactive)	> 100 µM (inactive)	> 100 µM (inactive)		> 100 µM (inactive)		> 100 µM (inactive)	> 100 µM (inactive)	
Cc1cc(O)c(C(c2ccncc2)c2c(O)cc(C)[nH]c2=O)c(=O)[nH]1		> 100 µM (inactive)	> 100 µM (inactive)	> 100 µM (inactive)	> 100 µM (inactive)	> 100 µM (inactive)	> 100 µM (inactive)	> 100	> 100 µM (inactive)	> 100 µM (inactive)	> 100 µM (inactive)	> 100 µM (inactive)	> 100 µM (inactive)	> 100 µM (inactive)	> 100 µM (inactive)		> 100 µM (inactive)	> 100 µM (inactive)	
CC1(C)CC(=O)c2c(nc3c(ccc4ccccc43)c2-c2ccc(NC(=O)CCCCC(=O)Nc3ccc(-c4c5c(nc6c4ccc4ccccc46)CC(C)(C)CC5=O)cc3)cc2)C1	15.2 µM (inactive)	39.2 µM (inactive)	32.1 µM (inactive)	33.1 µM (inactive)		22.5 µM (inactive)		27.7	48.6 µM (inactive)	22.6 µM (inactive)	20.7 µM (inactive)	23.8 µM (inactive)	18.8 µM (inactive)	34 µM (inactive)	20.7 µM (inactive)		78.3 µM (inactive)	26.4 µM (inactive)	
C=C(Br)C(Br)(CCl)CCC(Cl)C(C)C.C=C(Cl)C(Br)(CCl)CCC(Cl)C(C)C (centres undefined)	3.69 µM (inactive)	1.67 µM (inactive)	1.82 µM (inactive)	1.66 µM (inactive)	2.49 µM (inactive)	1.41 µM (inactive)	1.31 µM (inactive)		2.14 µM (inactive)		0.254 µM (active)	1.94 µM (inactive)	0.208 µM (active)	1.77 µM (inactive)	1.83 µM (inactive)	3.01 µM (inactive)	2.18 µM (inactive)	1.71 µM (inactive)	17.7 µM (inactive)
